# Test results from patent US10519111B2, “UV absorbing compounds, compositions comprising same and uses thereof” (CORAL SUNSCREEN PTY LTD, priority 2013, dated 2019).
# What was measured:
# [1] = UV absorption properties (λmax, molar extinction coefficient ε, efficiency E 1%, 1 cm); type: physicochemical
# [2] = Critical wavelength (λcrit), approximate in-house measurement; type: physicochemical
# Source text: As the precise test for critical wavelength was unable to be replicated exactly by the inventors due to the need for specialist equipment and a specific calibration of the spectrophotometer, these values are only approximate to a degree. […] This represents a highly useful result and so, compounds based around this benzoyl substitution pattern shown, are especially preferred.
# [3] = Table 9, C3-trifluoroacetylated N-aryl enamines
# [4] = Table 10, bis and mono enamine compounds
# [5] = Table 11, compounds from mixed anhydrides
# [6] = Table 12, 2-substituted compounds
# [7] = Table 13B, miscellaneous compounds
# [8] = Table 13B, values in order of the λmax values
# [9] = Table 13B, values in order of the λmax values, in M-1 cm-1
smiles,measurement,setting,value
Cc1ccc(N2C=C(C(=O)CCCCCCCCC(=O)C3=CN(c4ccc(C)cc4)CCC3(C)C)C(C)(C)CC2)cc1 [drawing 131],"E (1%, 1 cm)",[1]; Table 8b,928
same,λmax,"[1]; Table 8b, N-phenyl compounds",328 nm
same,ε,"[1]; Table 8b, in M-1 cm-1",52737
same,λcrit,[2]; Table 8b,349 nm
COc1ccc(N2C=C(C(=O)COc3ccccc3)C(C)(C)CC2)cc1 [drawing 132],"E (1%, 1 cm)",[1]; Table 8b,759
same,λmax,"[1]; Table 8b, N-phenyl compounds",339 nm
same,ε,"[1]; Table 8b, in M-1 cm-1",26633
same,λcrit,[2]; Table 8b,362 nm
COc1ccc(N2C=C(C(=O)Cc3ccccc3)C(C)(C)CC2)cc1 [drawing 133],"E (1%, 1 cm)",[1]; Table 8b,1008
same,λmax,"[1]; Table 8b, N-phenyl compounds",334 nm
same,ε,"[1]; Table 8b, in M-1 cm-1",33786
same,λcrit,[2]; Table 8b,350 nm
CCCCCCCC(=O)C1=CN(c2ccc(N(C)C)cc2)CCC1(C)C [drawing 134],"E (1%, 1 cm)",[1]; Table 8b,785
same,λmax,"[1]; Table 8b, N-phenyl compounds",338 nm
same,ε,"[1]; Table 8b, in M-1 cm-1",28040
same,λcrit,[2]; Table 8b,371 nm
CCC(=O)C1=CN(c2ccc(C)cc2)CCC1(C)C [drawing 135],"E (1%, 1 cm)",[1]; Table 8b,1347
same,λmax,"[1]; Table 8b, N-phenyl compounds",327 nm
same,ε,"[1]; Table 8b, in M-1 cm-1",34608
same,λcrit,[2]; Table 8b,348 nm
CCC(=O)C1=CN(c2ccc(C(C)(C)C)cc2)CCC1(C)C [drawing 136],"E (1%, 1 cm)",[1]; Table 8b,1069
same,λmax,"[1]; Table 8b, N-phenyl compounds",329 nm
same,ε,"[1]; Table 8b, in M-1 cm-1",31955
same,λcrit,[2]; Table 8b,348 nm
CCC(=O)C1=CN(c2cccc3ccccc23)CCC1(C)C [drawing 137],"E (1%, 1 cm)",[1]; Table 8b,793
same,λmax,"[1]; Table 8b, N-phenyl compounds",321 nm
same,ε,"[1]; Table 8b, in M-1 cm-1",23247
same,λcrit,[2]; Table 8b,346 nm
CC1(C)CCN(c2ccc(C(C)(C)C)cc2)C=C1C(=O)C(F)(F)F [drawing 139],"E (1%, 1 cm)",[1]; Table 9,1260
same,λmax,[1]; [3],337 nm
same,ε,"[1]; Table 9, in M-1 cm-1",42723
same,λcrit,[2]; Table 9,361 nm
COc1ccc(N2C=C(C(=O)C(F)(F)F)C(C)(C)CC2)cc1 [drawing 140],"E (1%, 1 cm)",[1]; Table 9,774
same,λmax,[1]; [3],339 nm
same,ε,"[1]; Table 9, in M-1 cm-1",24235
same,λcrit,[2]; Table 9,365 nm
CN(C)c1ccc(N2C=C(C(=O)C(F)(F)F)C(C)(C)CC2)cc1 [drawing 141],"E (1%, 1 cm)",[1]; Table 9,1004
same,λmax,[1]; [3],354 nm
same,ε,"[1]; Table 9, in M-1 cm-1",32744
same,λcrit,[2]; Table 9,385 nm
Cc1ccc(N2C=C(C(=O)C(F)(F)F)C(C)(C)CC2)cc1 [drawing 142],"E (1%, 1 cm)",[1]; Table 9,1465
same,λmax,[1]; [3],337 nm
same,ε,"[1]; Table 9, in M-1 cm-1",43513
same,λcrit,[2]; Table 9,361 nm
CC1(C)CCN(c2cccc3ccccc23)C=C1C(=O)C(F)(F)F [drawing 143],"E (1%, 1 cm)",[1]; Table 9,985
same,λmax,[1]; [3],325 nm
same,ε,"[1]; Table 9, in M-1 cm-1",32790
same,λcrit,[2]; Table 9,348 nm
Cc1ccc(N2C=CC(C)(C)C(C(=O)C(F)(F)F)=C2)cc1 [drawing 151],"E (1%, 1 cm)",[1]; Table 10,505
same,λmax,[1]; [4],388 nm
same,ε,"[1]; Table 10, in M-1 cm-1",14911
same,λcrit,[2]; Table 10,393 nm
Cc1cc(N2C=CC(C)(C)C=C2)n(C)n1 [drawing 152],"E (1%, 1 cm)",[1]; Table 10,560
same,λmax,[1]; [4],253 nm
same,ε,"[1]; Table 10, in M-1 cm-1",11371
same,λcrit,[2]; Table 10,350 nm
Cc1nn(C)c(N2C=CC(C)(C)C=C2)c1C(=O)C(F)(F)F [drawing 153],"E (1%, 1 cm)",[1]; Table 10,335
same,λmax,[1]; [4],253 nm
same,ε,"[1]; Table 10, in M-1 cm-1",10016
same,shoulder in the λmax column,"[1]; Tables 5, 10, 13B",315 nm
same,λcrit,[2]; Table 10,363 nm
CC1(C)CCN(c2ccc(C(C)(C)C)cc2)C=C1C(=O)C(c1ccccc1)c1ccccc1 [drawing 157],"E (1%, 1 cm)",[1]; Table 11,407
same,λmax,[1]; [5],337 nm
same,ε,"[1]; Table 11, in M-1 cm-1",17793
same,λcrit,[2]; Table 11,356 nm
CC1(C)CCN(c2ccc(C(C)(C)C)cc2)C=C1C(=O)C1c2ccccc2-c2ccccc21 [drawing 158],"E (1%, 1 cm)",[1]; Table 11,707
same,λmax,[1]; [5],339 nm
same,ε,"[1]; Table 11, in M-1 cm-1",30745
same,λcrit,[2]; Table 11,358 nm
CC1(C)CCN(c2ccc(C(C)(C)C)cc2)C=C1C(OC(=O)C1c2ccccc2-c2ccccc21)=C1c2ccccc2-c2ccccc21 [drawing 159],"E (1%, 1 cm)",[1]; Table 11,105
same,λmax,[1]; [5],407 nm
same,ε,"[1]; Table 11, in M-1 cm-1",6635
same,λcrit,[2]; Table 11,387 nm
CCC(=O)C1=C(c2ccccc2)N(CC(C)C)CCC1(C)C [drawing 163],"E (1%, 1 cm)",[1]; Table 12,268
same,ε,[1]; Table 12,8000 M⁻¹ cm⁻¹
same,λmax,[1]; [6],338 nm
same,λcrit,[2]; Table 12,365 nm
CCC(=O)O/C(=C\C1=CC(C)(C)CCN1CC(C)C)CC [drawing 165],"E (1%, 1 cm)",[1]; Table 12,683
same,ε,[1]; Table 12,20000 M⁻¹ cm⁻¹
same,λmax,[1]; [6],323 nm
same,λcrit,[2]; Table 12,344 nm
CCC(=O)C1=CN(CC(C)C)C=CC1(C)C [drawing 170],"E (1%, 1 cm)",[1]; Table 13A,362
same,ε,[1]; Table 13A,8800 M⁻¹ cm⁻¹
same,λmax,"[1]; Table 13A, miscellaneous compounds",366 nm
same,λcrit,[2]; Table 13A,386 nm
CC(C)=CCCC(C)CC(=O)C1=CN(c2ccc(N3C=C(C(=O)CC(C)CCC=C(C)C)C(C)(C)CC3)cc2)CCC1(C)C (stereo not drawn) [drawing 212],λmax,[1]; [7],359 nm
same,"E (1%, 1 cm)",[1]; [8],690
same,ε,[1]; [9],41400
same,λcrit,[2]; Table 13B,379 nm
CC(C)=CCCC(C)CC(=O)C1=CN(c2ccc(N3C=C(C(=O)CC(C)CCC=C(C)C)C(C)(C)CC3)cc2)CCC1(C)C (stereo not drawn) [drawing 213],λmax,[1]; [7],358 nm
same,"E (1%, 1 cm)",[1]; [8],550
same,ε,[1]; [9],33000
same,λcrit,[2]; Table 13B,378 nm
